Literature values in article PMC2975871 (The FEBS journal, 2010).
Values after ≈ are worked out from the molar mass of the structure shown.

CC(C)CN(C[C@@H](O)[C@H](Cc1ccccc1)NC(=O)O[C@H]1CO[C@H]2OCC[C@H]21)S(=O)(=O)c1ccc(N)cc1 [DRV, darunavir]
worse inhibition relative to wild type enzyme (PR with mutation I50V): 9 fold

CC(C)(C)NC(=O)[C@@H]1CN(Cc2cccnc2)CCN1C[C@@H](O)C[C@@H](Cc1ccccc1)C(=O)N[C@H]1c2ccccc2C[C@H]1O [IDV, indinavir]
decreased inhibition (PR with mutation I50V): 50 fold

CC(C)(C)NC(=O)[C@@H]1C[C@@H]2CCCC[C@@H]2CN1C[C@@H](O)[C@H](Cc1ccccc1)NC(=O)[C@H](CC(N)=O)NC(=O)c1ccc2ccccc2n1 [SQV, saquinavir]
decreased inhibition (PR with mutation I50V): 20 fold
water solubility: 0.036 mg/mL (≈ 53.7 µM)

CC(C)CN(C[C@@H](O)[C@H](Cc1ccccc1)NC(=O)O[C@H]1CCOC1)S(=O)(=O)c1ccc(N)cc1 [amprenavir]
increased IC50 (I54M mutation): 6 fold
